These results are taken from publication PMC10115881, “Disrupting the α-synuclein-ESCRT interaction with a peptide inhibitor mitigates neurodegeneration in preclinical models of Parkinson’s disease” (Nature Communications, 2023).

The test system of this test is cathepsin D. Put plainly: Cathepsin D fluorescence in rat cortical neurons. To be noted: A53T a-syn. The test is classed as cell-based. From the text:
Pregnant rats (E17) of the Sprague-Dawley strain were purchased from Envigo. Embryos were surgically removed from the mothers and cortices dissected in Hanks Balanced salt solution (Gibco). The meninges were removed, and cells were dissociated using a papain dissociation system (Worthington) before being resuspended in Neurobasal medium A supplemented with antibiotic-antimycotic solution (Gibco), L-glutamine substitute (GlutaMAX™; Gibco) and factor B27 (Gibco). […]
After fixation, cells were permeabilized with 0.2% Triton-X-100 for 15 min, washed three times with PBS and then incubated with blocking solution (1% BSA, 22.52 mg/mL glycine, 0.1% Tween-20 in PBS or 0.4% saponin, 1% BSA, and 5% goat or donkey serum in PBS) for 1 h. […] Following another three washes with PBS, nuclei were counterstained with DAPI (ThermoFisher) and then coverslips were mounted on slides using Dako fluorescence mounting medium (Agilent) and sealed using clear nail varnish.
Confocal images of primary cortical neurons, iPSC-derived dopaminergic neurons, and LAMP1 staining within the SN were processed using Imaris software (Oxford instruments). […] Mean pixel intensity per GFP^+ cell (for experiments using GFP-tagged peptides) or RFP^+ cell (for experiments using RFP-tagged peptides) was calculated for a-syn or LAMP1 signal using the software’s surfaces module. […]

DEEIERQLKALG [PDpep1.3]: the “Effect on cathepsin D” value is given as “reduced to control levels”.
